In ChEMBL document CHEMBL1201862, “PubChem BioAssay data set” (2004):
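Test compounds were applied to cells in 96-well plates for 48 hours at 5 doses. At the GI50, growth is halved.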 Calls of active or inactive are those of the source. Cut-off read from the data, not from the text of the source: active = GI50 up to about 1.1 µM and inactive = higher.

Tests used:
Experiment in all cases: NCI anticancer screen, dose series, 48 h
786-0 = system: 786-0
A498 = system: A498
A549 = system: A549
ACHN = system: ACHN
BT-549 = system: BT-549
CAKI-1 = system: CAKI-1
DU-145 = system: DU-145
EKVX = system: EKVX
HCT-116 = system: HCT-116
HCT-15 = system: HCT-15
HT-29 = system: HT-29
Hs-578T = system: Hs-578T
K562 = system: K562
KM12 = system: KM12
M14 = system: M14
MCF7 = system: MCF7
MDA-MB-231 = system: MDA-MB-231
MDA-MB-435 = system: MDA-MB-435
MDA-N = system: MDA-N
MOLT-4 = system: MOLT-4
NCI-H23 = system: NCI-H23
NCI-H460 = system: NCI-H460
NCI/ADR-RES = system: NCI/ADR-RES
OVCAR-3 = system: OVCAR-3
OVCAR-4 = system: OVCAR-4
OVCAR-5 = system: OVCAR-5
PC-3 = system: PC-3
RPMI-8226 = system: RPMI-8226
RXF 393 = system: RXF 393
SF-268 = system: SF-268
SF-295 = system: SF-295
SK-MEL-2 = system: SK-MEL-2
SN12C = system: SN12C
SNB-19 = system: SNB-19
SR = system: SR
T47D = system: T47D
TK-10 = system: TK-10
U-251 = system: U-251
UACC-257 = system: UACC-257
UACC-62 = system: UACC-62
UO-31 = system: UO-31
CCRF-CEM = system: CCRF-CEM
COLO 205 = system: COLO 205
HL-60 = system: HL-60
HOP-62 = system: HOP-62
HOP-92 = system: HOP-92
IGROV-1 = system: IGROV-1
LOX IMVI = system: LOX IMVI
Malme-3M = system: Malme-3M
NCI-H226 = system: NCI-H226
NCI-H522 = system: NCI-H522
OVCAR-8 = system: OVCAR-8
SF-539 = system: SF-539
SK-MEL-28 = system: SK-MEL-28
SK-MEL-5 = system: SK-MEL-5
SK-OV-3 = system: SK-OV-3
SNB-75 = system: SNB-75
SW-620 = system: SW-620

With `COc1ccc(OC)c(C23CCCC(C2)N(C)CC3)c1` (centres undefined) the GI50 (786-0) was 25.3 µM (inactive), the GI50 (A498) was 32.3 µM (inactive) and the GI50 (A549) was 22.3 µM (inactive). For the same compound, the GI50 (ACHN) was 26.9 µM (inactive), the GI50 (BT-549) was 30.8 µM (inactive) and the GI50 (CAKI-1) was 46.5 µM (inactive). The GI50 (DU-145) was 32.7 µM (inactive), the GI50 (EKVX) was 43.6 µM (inactive) and the GI50 (HCT-116) was 13.8 µM (inactive). For the same compound, the GI50 (HCT-15) was 34 µM, the GI50 (HT-29) was 14.9 µM (inactive) and the GI50 (Hs-578T) was 38.1 µM (inactive). For the same compound, the GI50 (K562) was 17 µM (inactive), the GI50 (KM12) was 18.4 µM (inactive) and the GI50 (M14) was 17.6 µM (inactive). The GI50 (MCF7) was 16.6 µM (inactive), the GI50 (MDA-MB-231) was 21.3 µM (inactive) and the GI50 (MDA-MB-435) was 20.1 µM (inactive). The GI50 (MDA-N) was 27.4 µM (inactive), the GI50 (MOLT-4) was 32.1 µM (inactive) and the GI50 (NCI-H23) was 32.1 µM (inactive). The GI50 (NCI-H460) was 19.2 µM (inactive), the GI50 (NCI/ADR-RES) was 60.3 µM (inactive) and the GI50 (OVCAR-3) was 19.6 µM (inactive). For the same compound, the GI50 (OVCAR-4) was 24.9 µM (inactive), the GI50 (OVCAR-5) was 40 µM (inactive) and the GI50 (PC-3) was 16.4 µM (inactive). For the same compound, the GI50 (RPMI-8226) was 12.7 µM (inactive), the GI50 (RXF 393) was 29.9 µM (inactive) and the GI50 (SF-268) was 44.6 µM (inactive). For the same compound, the GI50 (SF-295) was 38.5 µM (inactive), the GI50 (SK-MEL-2) was 21.8 µM (inactive) and the GI50 (SN12C) was 28.2 µM (inactive). The GI50 (SNB-19) was 6.75 µM (inactive), the GI50 (SR) was 18.4 µM (inactive) and the GI50 (T47D) was 33.3 µM (inactive). The GI50 (TK-10) was 40.3 µM (inactive), the GI50 (U-251) was 11.7 µM (inactive) and the GI50 (UACC-257) was 36.6 µM (inactive). For the same compound, the GI50 (UACC-62) was 20.9 µM (inactive) and the GI50 (UO-31) was 28.6 µM (inactive).
In the case of `Cc1cc(C)c(S(=O)(=O)N(CCCCCCN)OCCCON(CCCCCCN)S(=O)(=O)c2c(C)cc(C)cc2C)c(C)c1`, the GI50 (786-0) is reported as 1.9 µM (inactive), the GI50 (A498) is reported as 1.7 µM (inactive) and the GI50 (A549) is reported as 1.72 µM (inactive). The GI50 (ACHN) was 2.55 µM (inactive), the GI50 (BT-549) was 1.65 µM (inactive) and the GI50 (CAKI-1) was 1.94 µM (inactive). For the same compound, the GI50 (CCRF-CEM) was 2.29 µM (inactive), the GI50 (COLO 205) was 1.89 µM (inactive) and the GI50 (DU-145) was 1.37 µM (inactive). The GI50 (EKVX) was 1.79 µM (inactive), the GI50 (HCT-116) was 1.69 µM (inactive) and the GI50 (HCT-15) was 1.8 µM. For the same compound, the GI50 (HL-60) was 2.15 µM (inactive), the GI50 (HOP-62) was 1.8 µM (inactive) and the GI50 (HOP-92) was 1.46 µM (inactive). The GI50 (HT-29) was 1.66 µM (inactive), the GI50 (Hs-578T) was 2.11 µM (inactive) and the GI50 (IGROV-1) was 1.65 µM (inactive). The GI50 (K562) was 3.61 µM (inactive), the GI50 (KM12) was 1.9 µM (inactive) and the GI50 (LOX IMVI) was 1.7 µM (inactive). For the same compound, the GI50 (M14) was 1.66 µM (inactive), the GI50 (MCF7) was 1.91 µM (inactive) and the GI50 (MDA-MB-231) was 1.8 µM (inactive). The GI50 (MDA-MB-435) was 2.13 µM (inactive), the GI50 (MDA-N) was 1.88 µM (inactive) and the GI50 (MOLT-4) was 2.44 µM (inactive). For the same compound, the GI50 (Malme-3M) was 1.45 µM (inactive), the GI50 (NCI-H226) was 1.79 µM (inactive) and the GI50 (NCI-H23) was 1.63 µM (inactive). The GI50 (NCI-H460) was 1.64 µM (inactive), the GI50 (NCI-H522) was 1.73 µM (inactive) and the GI50 (NCI/ADR-RES) was 13.2 µM (inactive). For the same compound, the GI50 (OVCAR-3) was 1.76 µM (inactive), the GI50 (OVCAR-4) was 1.67 µM (inactive) and the GI50 (OVCAR-5) was 1.4 µM (inactive). The GI50 (OVCAR-8) was 1.79 µM (inactive), the GI50 (PC-3) was 1.77 µM (inactive) and the GI50 (RPMI-8226) was 2.43 µM (inactive). For the same compound, the GI50 (RXF 393) was 1.7 µM (inactive), the GI50 (SF-268) was 1.78 µM (inactive) and the GI50 (SF-295) was 1.82 µM (inactive). The GI50 (SF-539) was 2.28 µM (inactive), the GI50 (SK-MEL-28) was 1.83 µM (inactive) and the GI50 (SK-MEL-2) was 1.89 µM (inactive). The GI50 (SK-MEL-5) was 1.82 µM (inactive), the GI50 (SK-OV-3) was 1.71 µM (inactive) and the GI50 (SN12C) was 1.9 µM (inactive). For the same compound, the GI50 (SNB-19) was 1.62 µM (inactive), the GI50 (SNB-75) was 1.79 µM (inactive) and the GI50 (SR) was 2.51 µM (inactive). For the same compound, the GI50 (SW-620) was 2.15 µM (inactive), the GI50 (T47D) was 1.91 µM (inactive) and the GI50 (TK-10) was 1.58 µM (inactive). The GI50 (U-251) was 1.7 µM (inactive), the GI50 (UACC-257) was 1.69 µM (inactive) and the GI50 (UACC-62) was 1.74 µM (inactive). For the same compound, the GI50 (UO-31) was 2.06 µM (inactive).
